Results taken from ChEMBL document CHEMBL4130427, “Synthesis and evaluation of asymmetric curcuminoid analogs as potential anticancer agents that downregulate NF-κB activation and enhance the sensitivity of gastric cancer cell lines to irinotecan chemotherapy” (Eur J Med Chem, 2017).
The source made the active and inactive calls. No cut-off for these calls is given here.

Key:
BGC-823 [1] = assay: Inhibition of colony formation in human BGC823 cells at 5 uM treated for 12 hrs followed by incubation in drug free medium for 14 days by crystal violet staining based assay; type: functional, cell-based
SGC-7901 [2] = assay: Inhibition of colony formation in human SGC7901 cells at 5 uM treated for 12 hrs followed by incubation in drug free medium for 14 days by crystal violet staining based assay; type: functional, cell-based
BGC-823 [3] = assay: Growth inhibition of human BGC823 cells at 20 uM after 72 hrs by MTT assay; type: functional, cell-based
BGC-823 [4] = assay: Potency index, ratio of compound effect to curcumin effect for growth inhibition of human BGC823 cells; type: functional
SGC-7901 [5] = assay: Growth inhibition of human SGC7901 cells at 20 uM after 72 hrs by MTT assay; type: functional, cell-based
SGC-7901 [6] = assay: Potency index, ratio of compound effect to curcumin effect for growth inhibition of human SGC7901 cells; type: functional
Mus musculus = species on record: Mus musculus; assay: Growth inhibition of MFC cells at 20 uM after 72 hrs by MTT assay; type: functional
BGC-823 [7] = assay: Growth inhibition of human BGC823 cells after 72 hrs by MTT assay; type: functional, cell-based; conditions: BGC-823, 72 h
SGC-7901 [8] = assay: Growth inhibition of human SGC7901 cells after 72 hrs by MTT assay; type: functional, cell-based; conditions: SGC-7901, 72 h
BGC-823 [9] = assay: Inhibition of colony formation in human BGC823 cells treated for 12 hrs followed by incubation in drug free medium for 14 days by crystal violet staining based assay; type: functional, cell-based
SGC-7901 [10] = assay: Inhibition of colony formation in human SGC7901 cells treated for 12 hrs followed by incubation in drug free medium for 14 days by crystal violet staining based assay; type: functional, cell-based
BGC-823 [11] = assay: Induction of apoptosis in human BGC823 cells assessed as downregulation of bcl2 protein expression at 2.5 to 5 uM after 48 hrs by Western blot method; type: functional, cell-based
SGC-7901 [12] = assay: Induction of apoptosis in human SGC7901 cells assessed as downregulation of bcl2 protein expression at 2.5 to 5 uM after 48 hrs by Western blot method; type: functional, cell-based
BGC-823 [13] = assay: Induction of apoptosis in human BGC823 cells assessed as upegulation of cleaved PARP protein expression at 2.5 to 5 uM after 48 hrs by Western blot method; type: functional, cell-based
SGC-7901 [14] = assay: Induction of apoptosis in human SGC7901 cells assessed as upegulation of cleaved PARP protein expression at 2.5 to 5 uM after 48 hrs by Western blot method; type: functional, cell-based
BGC-823 [15] = assay: Induction of apoptosis in human BGC823 cells assessed as upegulation of cleaved caspase-3 protein expression at 2.5 to 5 uM after 48 hrs by Western blot method; type: functional, cell-based
SGC-7901 [16] = assay: Induction of apoptosis in human SGC7901 cells assessed as upegulation of cleaved caspase-3 protein expression at 2.5 to 5 uM after 48 hrs by Western blot method; type: functional, cell-based
BGC-823 [17] = assay: Induction of apoptosis in human BGC823 cells assessed as upegulation of Bax protein expression at 2.5 to 5 uM after 48 hrs by Western blot method; type: functional, cell-based
SGC-7901 [18] = assay: Induction of apoptosis in human SGC7901 cells assessed as upegulation of Bax protein expression at 2.5 to 5 uM after 48 hrs by Western blot method; type: functional, cell-based
SGC-7901 [19] = assay: Induction of apoptosis in human SGC7901 cells assessed as apoptotic nuclei formation at 2.5 to 5 uM after 24 hrs by Hoechst 33258 staining based fluorescence microscopic method; type: functional, cell-based
Homo sapiens [20] = species on record: Homo sapiens; assay: Inhibition of NFkappaB activation in human BGC823 cells assessed as reduction in TNFalpha-induced IkBalpha degradation at 1 to 5 uM preincubated for 2 hrs followed by TNFalpha addition measured after 30 mins by Western blot method; type: cell-based
Homo sapiens [21] = species on record: Homo sapiens; assay: Inhibition of NFkappaB activation in human SGC7901 cells assessed as reduction in TNFalpha-induced IkBalpha degradation at 1 to 5 uM preincubated for 2 hrs followed by TNFalpha addition measured after 30 mins by Western blot method; type: cell-based
Homo sapiens [22] = species on record: Homo sapiens; assay: Inhibition of NFkappaB activation in human BGC823 cells assessed as potentiation of irrinotecan-induced cell growth inhibition at 1 uM after 48 hrs by inverted microscopic method relative to (3E,5E)-3-(2,3-dimethoxybenzylidene)-5-(4-hydroxy-3-methoxybenzylidene)dihydro-2H-pyran-4(3H)-one alone; type: cell-based
Homo sapiens [23] = species on record: Homo sapiens; assay: Inhibition of NFkappaB activation in human BGC823 cells assessed as potentiation of irrinotecan-induced cell growth inhibition at 1 uM after 48 hrs by inverted microscopic method relative to irrinotecan alone; type: cell-based
Homo sapiens [24] = species on record: Homo sapiens; assay: Inhibition of NFkappaB activation in human BGC823 cells assessed as potentiation of irrinotecan-induced cell growth inhibition at 1 uM after 72 hrs by MTT method relative to (3E,5E)-3-(2,3-dimethoxybenzylidene)-5-(4-hydroxy-3-methoxybenzylidene)dihydro-2H-pyran-4(3H)-one alone; type: cell-based
Homo sapiens [25] = species on record: Homo sapiens; assay: Inhibition of NFkappaB activation in human BGC823 cells assessed as potentiation of irrinotecan-induced cell growth inhibition at 1 uM after 72 hrs by MTT method relative to irrinotecan alone; type: cell-based
Homo sapiens [26] = species on record: Homo sapiens; assay: Inhibition of NFkappaB activation in human BGC823 cells assessed as potentiation of irrinotecan-induced decrease in survival cell count at 1 uM after 48 hrs by cell analyzer method; type: cell-based
Homo sapiens [27] = species on record: Homo sapiens; assay: Inhibition of NFkappaB activation in human BGC823 cells assessed as potentiation of irrinotecan-induced decrease in colony formation at 1 uM preincubated for 12 hrs followed by incubation in drug free medium for 11 days by crystal violet staining based assay; type: cell-based

Q: Which inhibition (BGC-823 [1]) does the source give for `Cc1ccc(S(=O)(=O)/C=C/C#N)cc1` here?
A: Active

Q: What about the inhibition (SGC-7901 [2]) of the same molecule?
A: Active

Q: Which results are given for `COc1ccc(OC)c(/C=C2\COC/C(=C\c3ccc(O)c(OC)c3)C2=O)c1`?
A: growth inhibition (GI) (BGC-823 [3]): Active; Ratio (BGC-823 [4]): >10; growth inhibition (GI) (SGC-7901 [5]): Active; Ratio (SGC-7901 [6]): >2; growth inhibition (GI) (Mus musculus): Active

Q: With `COc1ccc(/C=C2\COC/C(=C\c3ccc(O)c(OC)c3)C2=O)c(OC)c1` as the molecule, how does the “growth inhibition (GI)” value (SGC-7901 [5]) read?
A: Active

Q: And the Ratio (SGC-7901 [6])?
A: >2

Q: Which results are given for `Cc1ccc2nc(NCCN)c3ncc(C)n3c2c1`?
A: growth inhibition (GI) (BGC-823 [3]): Active; growth inhibition (GI) (SGC-7901 [5]): Active; growth inhibition (GI) (Mus musculus): Active

Q: For `COc1ccc(/C=C2\COC/C(=C\c3ccc(O)c(OC)c3)C2=O)c(C(F)(F)F)c1`, which “growth inhibition (GI)” value (BGC-823 [3]) is on record?
A: Active

Q: What about the Ratio (BGC-823 [4]) of the same molecule?
A: >10

Q: And the “growth inhibition (GI)” value (SGC-7901 [5])?
A: Active

Q: What about the Ratio (SGC-7901 [6]) of the same molecule?
A: >2

Q: Which “growth inhibition (GI)” value (BGC-823 [3]) does the source give for `COc1cc(/C=C2\COC/C(=C\c3cccc(OC)c3OC)C2=O)ccc1O` here?
A: Active

Q: What about the Ratio (BGC-823 [4]) of the same molecule?
A: >10

Q: What about the “growth inhibition (GI)” value (SGC-7901 [5]) of the same molecule?
A: Active

Q: And the Ratio (SGC-7901 [6])?
A: >2

Q: And the “growth inhibition (GI)” value (Mus musculus)?
A: Active

Q: And the IC50 (BGC-823 [7])?
A: 3.5 µM

Q: What about the IC50 (SGC-7901 [8]) of the same molecule?
A: 1.6 µM

Q: And the inhibition (BGC-823 [9])?
A: Dose-dependent effect

Q: What about the inhibition (SGC-7901 [10]) of the same molecule?
A: Dose-dependent effect

Q: What about the Activity (BGC-823 [11]) of the same molecule?
A: Active

Q: What about the Activity (SGC-7901 [12]) of the same molecule?
A: Active

Q: And the Activity (BGC-823 [13])?
A: Active

Q: And the Activity (SGC-7901 [14])?
A: Active

Q: And the Activity (BGC-823 [15])?
A: Active

Q: What about the Activity (SGC-7901 [16]) of the same molecule?
A: Active

Q: And the Activity (BGC-823 [17])?
A: Active

Q: What about the Activity (SGC-7901 [18]) of the same molecule?
A: Active

Q: And the Activity (SGC-7901 [19])?
A: Active

Q: What about the inhibition (Homo sapiens [20]) of the same molecule?
A: Dose-dependent effect

Q: And the inhibition (Homo sapiens [21])?
A: Dose-dependent effect

Q: And the fold change (FC) (Homo sapiens [22])?
A: 3

Q: And the fold change (FC) (Homo sapiens [23])?
A: 2

Q: And the fold change (FC) (Homo sapiens [24])?
A: 2.5

Q: And the fold change (FC) (Homo sapiens [25])?
A: 10

Q: What about the inhibition (Homo sapiens [26]) of the same molecule?
A: Active

Q: What about the inhibition (Homo sapiens [27]) of the same molecule?
A: Active

Q: With `COc1cc(/C=C/C(=O)CC(=O)/C=C/c2ccc(O)c(OC)c2)ccc1O` as the molecule, how does the “growth inhibition (GI)” value (BGC-823 [3]) read?
A: Active

Q: And the “growth inhibition (GI)” value (SGC-7901 [5])?
A: Active

Q: And the “growth inhibition (GI)” value (Mus musculus)?
A: Active

Q: Which results are given for `COc1ccc(/C=C2\COC/C(=C\c3ccc(O)c(OC)c3)C2=O)cc1O`?
A: growth inhibition (GI) (BGC-823 [3]): Active; Ratio (BGC-823 [4]): >10; growth inhibition (GI) (SGC-7901 [5]): Active; Ratio (SGC-7901 [6]): >2; growth inhibition (GI) (Mus musculus): Active
